Experimental data from patent US10071163B2, “Compositions and methods for selective delivery of oligonucleotide molecules to specific neuron types” (nLife Therapeutics, S.L., priority 2010, dated 2018).

What was measured:
[1] = test system: dopaminergic neurons of the substantia nigra pars compacta; assay: Confocal localization of Cy3 label in substantia nigra after ICV administration; type: in vivo, mice; conditions: FIG. 17
Procedure: (§1) For the infusion of siRNAs, C57BV6Ncr1 male mice were deeply anesthetized with isofluorane and placed in a mouse adaptor (Stoelting ref. 51625) attached to a stereotaxic frame with digital display readout (David Kopf Instruments, model 940). […] The needle was left in the place for 3 min to avoid upward flow of the siRNA solution.
(§2) The mice were perfused with 4% PFA at two different time points, 1 and 3 hours post-administration of the siRNA. Brains were dissected and post-fixed in a solution of 4% PFA for 24 h at 4° C. Then brains were placed in a 30% sucrose solution for 48 h at 4° C. Brains were frozen in 2-methylbutane at −30 to −40° C. and stored at −80° C. Brains were sectioned in a cryostat Leica CM3050 S ([…]). Free-floating sections were washed and stored at 4° C. in 0.1 M PBS and 0.001% sodium azide.
(§3) Sections were washed in PBS, blocked with 2% goat serum and 0.1% Triton and incubated with anti-TH antibody (1:800 mouse) overnight at 4° C. After washing, sections were incubated with secondary antibody Alexa Fluor 647 anti-mouse (Invitrogen) for 1 h at room temperature. Finally sections were mounted with Dako Fluorescent Mounting Medium and analyzed using a confocal spectral microscope (FV 1000 Olympus). Pictures were generated using FV 10-ASW 1.7 Viewer.

[2] = test system: noradrenergic neurons of the locus coeruleus; assay: Confocal localization of Cy3 label in locus coeruleus after ICV administration; type: in vivo, mice; conditions: FIG. 18
Procedure: as §1, §2, §3

[3] = test system: presynaptic 5-HT1A receptor; assay: Microdialysis of 5-HT in medial prefrontal cortex after acute fluoxetine, i.c.v. siRNA; type: in vivo, mice; conditions: after systemic fluoxetine 20 mg/kg i.p.; siRNA 30 μg i.c.v.; FIG. 9
Excerpt: The increase of extracellular 5-HT produced by reuptake blockade of serotonin transporter (SERT) activates 5-HT1A autoreceptors in the midbrain raphe nuclei, suppressing cell firing and terminal release, an effect that attenuates the extracellular 5-HT increase produced by reuptake blockade. Consequently, the activation of postsynaptic serotonin receptors responsible for the therapeutic effect is lower than expected. It is known that the blockade of these negative feedback mechanisms with 5-HT1A receptor antagonists (i.e pindolol) potentiates the 5-HT increase produced by SSRIs and, therefore, might serve to accelerate the clinical effects of SSRIs.

5-HT1AR [4] = target: T1, 5-HT1AR (Mus musculus, UniProt Q64264); assay: Microdialysis of 5-HT in mPFC after 8-OH-DPAT, intranasal siRNA; conditions: intranasal 15 μg/5 μl in each nostril; 8-OH-DPAT 0.5 mg/kg i.p.; FIG. 12B
T1 sequence (Q64264 1-421): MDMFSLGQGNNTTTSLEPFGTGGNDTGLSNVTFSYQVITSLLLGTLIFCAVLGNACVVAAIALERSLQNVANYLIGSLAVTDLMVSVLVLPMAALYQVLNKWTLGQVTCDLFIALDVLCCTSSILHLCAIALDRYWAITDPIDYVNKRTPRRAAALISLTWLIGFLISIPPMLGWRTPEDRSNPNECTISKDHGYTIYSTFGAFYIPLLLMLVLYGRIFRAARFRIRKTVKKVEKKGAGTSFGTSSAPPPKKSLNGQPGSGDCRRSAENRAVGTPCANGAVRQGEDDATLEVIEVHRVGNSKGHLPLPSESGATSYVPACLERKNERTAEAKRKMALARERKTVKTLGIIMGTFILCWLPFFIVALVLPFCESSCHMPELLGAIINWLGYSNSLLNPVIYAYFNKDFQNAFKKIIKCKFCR
Procedure: To evaluate 5-HT release, an intracerebral microdyalisis procedure was used as has been described in the state of the art. In brief, the shaft of the probe was made up of 15-mm long, 25-gauge (501 μm OD, 300 μm ID) stainless-steel tubing. The inflow and outflow tubes threaded through the 25 gauge tubing consisted of fused silica capillary tubing of 110 μm OD and 40 μM ID. The upper exposed ends of silica tubing were inserted into 7-mm long, 27 gauge (410 μm OD, 220 μM ID) stainless-steel tubing. Mice were anesthetized with sodium pentobarbital (40 mg/kg, i.p.) and positioned in a stereotaxic frame.
Dialysate samples of 60 μl were collected every 30 min in microcentrifuge vials.
At the completion of dialysis experiments, mice were sacrificed and the brains were immediately removed and frozen at −70° C. Coronal sections (50 μm) of the brain were cut afterwards on a cryostat and stained with cresyl violet, according to standard procedures, for localization of the perfusion site. Only data obtained from animals with histologically correct probe placements were used for subsequent statistical analysis.
The retention time for 5-HT was 3.5-4 min and the detection limit was 2 fmol/sample.
Mice were anesthetized with pentobarbital 40 mg/kg i.p and positioned on their backs. PBS or NLF-siRNA was slowly and gently dropped in alternating nostril with a micropipette tip in 5-ul aliquots.

5-HT1AR [5] = target: T1, 5-HT1AR; assay: 8-OH-DPAT-induced hypothermia after i.c.v. infusion into D3V; type: in vivo, mice; set-up: we used [^3H]8-OH-DPAT for the autoradiographic visualization of 5-HT1A receptor sites; from tissue; host or cells: mouse brain (dorsal raphe nucleus, prefrontal cortex, hippocampus): living animal or frozen 14 µm sections; conditions: 30 μg/2.5 μl/1 day into D3V; 24 h after infusion; 8-OH-DPAT 1 mg/kg i.p.; FIG. 6
Procedure: To test a functional measure of the pre-synaptic 5-HT1AR activity, we evaluated the hypothermia response induced by (R)-(+)-8-hydroxy-2-(di-n-propylamino)tetralin hydrobromide (8-OH-DPAT, a selective 5-HT1AR agonist) 24 hs after the infusion of a pool of naked siRNA or NLF-siRNA into dorsal raphe nucleus (DRN, 0.3 μg (0.02 nmoles)/1 μl/2 days). […] Mice were kept in individual cages in experimental room at stable temperature of 22° C. 1 h before the experiment. All experiments were carried out between 10:00 a.m. and 14:00 p.m. Body temperature was measured by inserting a lubricated probe into the rectum 5 min before the reading of the temperature while the mice was freely moving. The readings were obtained with a digital thermometer. A basal value was measured 5 min before and 15, 30, 60 and 120 min after 8-OH-DPAT administration. […] Body temperature was assessed 24 hs after the last application of 5-HT1A-targeting siRNAs into DRN in different groups of mice and in their respective controls. […]
To evaluate the NLF-siRNA effect on the functional features of 5-HT1AR we assayed hypothermia response induced by 8-OH-DPAT and 5-HT release in the medial prefrontral cortex (mPFC). We evaluated the hypothermia response induced by 8-OH-DPAT 24 hs after the infusion of a pool of naked siRNAs or NLF-siRNA (as described in example 2) into dorsal 3rd ventricle (D3V, 30 μg/2.5 μl/1 day).

5-HT1AR [6] = assay: [3H]8-OH-DPAT autoradiographic binding of 5-HT1AR protein after i.c.v. infusion; type: in vivo, mice; conditions: 30 μg/2.5 μl/1 day into D3V
Procedure: To assay the density of 5-HT1AR protein we used [^3H]8-OH-DPAT for the autoradiographic visualization of 5-HT1A receptor sites. The experimental incubation conditions for [^3H]8-OH-DPAT have been previously described in the state of the art. Briefly, frozen tissue sections were thawed and dried, preincubated in 170 mM Tris-HCl pH 7.6, 4 mM CaCl2 and 0.01% ascorbic acid for 30 minutes at room temperature, and then incubated in the same buffer, including 1 nM [^3H]—OH-DPAT (234.0 Ci/mmol) and 10^−5 M pargyline for 60 minutes at room temperature. Non-specific binding was defined as that remaining in the presence of 10^−5 M 5-HT. After incubation and washing, tissue sections were dipped in distilled ice-cold water and dried rapidly under a cold air stream. Tissues were exposed to tritium-sensitive film together with plastic ^3H-standards for 60 days at 4° C.
A set of molecules (vehicle, ns naked siRNA, ns NLF-siRNA, naked siRNA and NLF-siRNA groups), as described in example 3, were infused at 30 μg/2.5 μl/1 day (2.3 nmoles) into dorsal 3rd ventricle (D3V) at the following stereotaxic coordinates (in mm: AP: −2.0, L: 0, DV: −2.1) using similar mice strain and infusion system of example 2. […]

[7] = 1 hour after ICV administration, 100 μg

| Substance | Cy3 red labeling in TH-positive nigral neurons [1, 7] | Cy3 red labeling in gabaergic neurons of the substantia nigra reticulata [1, 7] | Cy3 red intracellular labeling in substantia nigra ([1]; 3 hours after ICV injection) | Cy3 red labeling in TH-positive noradrenergic neurons [2, 7] | Cy3 red intracellular labeling in locus coeruleus ([2]; 3 hours after ICV injection) | dyalisate serotonin concentration in medial prefrontal cortex, higher than baseline [3] [%] | extracellular 5-HT levels in mPFC following systemic 8-OH-DPAT (5-HT1AR [4]) | hypothermia response induced by 8-OH-DPAT (5-HT1AR [5]) | knockdown effect on 5-HT1AR (5-HT1AR [6]) |
| --- | --- | --- | --- | --- | --- | --- | --- | --- | --- |
| NLF-NS-siRNA-Cy3: non-sense siRNA (SEQ ID NO 69/70) conjugated to nomifensin, antisense strand carrying Cy3 (chain 1 AGUACUGCUUACGAUACGG; chain 2 CCGUAUCGUAAGCAGUACU; conjugated to nomifensin, Cy3 label, positions not given here) | can be detected within TH-positive nigral neurons | not in the gabaergic neurons | any red intracellular labeling can not be detected | can be detected mainly within TH-positive noradrenergic neurons | any red intracellular labeling can not be detected |  |  |  |  |
| ns NLF-siRNA: nonsense siRNA (SEQ ID NO 56/57) conjugated to a group of formula (I) and one targeting agent; control (chain 1 AGUACUGCUUACGAUACGG; chain 2 CCGUAUCGUAAGCAGUACU; further chemistry not given here) |  |  |  |  |  | ~50 | reduced | typical curve in the hypothermia response | did not show a knockdown effect |
